Experiment [1] deals with Triticum aestivum (TRZAS). The experiment is described as follows: In vivo analyses Part C: drought stress, appearance vs stressed control plants in categories (TRZAS). Set-up: key: 0: no positive effect; 10: slight positive effect; 20: clear positive effect; 30: strong positive effect. To be noted: appearance vs stressed control plants after recovery phase, efficacy range of 3-4 pots. The method, then: Seeds of monocotyledonous and dicotyledonous crop plants were sown in sandy loam in plastic or wood-fibre pots, covered with soil or sand and cultivated in a greenhouse under good growth conditions. The test plants were treated at the early leaf stage (BBCH10-BBCH13). To assure uniform water supply before commencement of stress, the potted plants were supplied with water by dam irrigation prior to substance application. The inventive compounds were first formulated as wettable powders (WP) or dissolved in a solvent mixture. The further dilution was effected with water supplemented with 0.2% wetting agent (e.g. agrotin). The finished spray liquor was sprayed onto the green parts of the plant at an equivalent water application rate of 600 I/ha. Substance application was followed immediately by stress treatment of the plants. For this purpose, the wood-fibre pots were transferred in plastic inserts in order to prevent them from subsequently drying out too quickly. Drought stress was induced by gradual drying out under the following conditions: “Day”: 14 hours with illumination at 26-30° C. “Night”: 10 hours without illumination at 18-20° C. The duration of the respective stress phases was guided mainly by the condition of the stressed control plants. It was ended (by re-irrigating and transfer to a greenhouse with good growth conditions) as soon as irreversible damage was observed on the stressed control plants. The end of the stress phase was followed by an about 4-7-day recovery phase, during which the plants were once again kept under good growth conditions in a greenhouse. The duration of the recovery phase was guided mainly by when the trial plants had attained a state which enabled visual scoring of potential effects, and was therefore variable. Once this juncture had been reached, the appearance of the plants treated with test substances was recorded in comparison to the stressed control plants by the following categories: [table] For each substance and dosage, 3-4 pots were treated and evaluated. TRZAS=Triticum aestivum

The subject of another experiment is Zea mays (ZEAMX). The experiment is described as follows: In vivo analyses Part A: drought stress, visual damage scoring, efficacy EF (ZEAMX). The settings on record: spray application 250 g/ha, efficacy = reduction in damage intensity. As for the experimental part:
Seeds of monocotyledonous and dicotyledonous crop plants were sown in sandy loam in wood-fibre pots, covered with soil or sand and cultivated in a greenhouse under good growth conditions. The test plants were treated at the early leaf stage (BBCH10-BBCH13). To assure uniform water supply before commencement of stress, the potted plants were supplied with water by dam irrigation prior to substance application. The inventive compounds, formulated in the form of wettable powders (WP), were sprayed onto the green parts of the plants as an aqueous suspension at an equivalent water application rate of 600 I/ha with addition of 0.2% wetting agent (e.g. agrotin). Substance application was followed immediately by stress treatment of the plants. For this purpose, the pots were transferred in plastic inserts in order to prevent them from subsequently drying out too quickly. Drought stress was induced by gradual drying out under the following conditions: “Day”: 14 hours with illumination at 26° C. “Night”: 10 hours without illumination at 18° C. The duration of the respective stress phases was guided mainly by the condition of the stressed control plants. […] Once this juncture was reached, the intensities of damage were scored visually in comparison to untreated, unstressed controls of the same age. The damage intensity was at first assessed in percent. […]

Molecules are shown by their SMILES.

With `CCC(C=CC(O)(c1ccccc1)C1(C#N)CC1)=CC(=O)O` (racemic) [I.2-201], the “Effect (TRZAS)” value in experiment [1] (dosage 25 g/ha) is 10.
With `CCOC(=O)/C=C(/C)C#CC(O)(C(C)C)C1(C#N)CC1` (stereo not drawn) [I.1-136], the “EF [%] (ZEAMX)” value in the experiment on Zea mays (ZEAMX) is above 5%.
For the compound `CC/C(C#CC(O)(C1CCC1)C1(C#N)CC1)=C/C(=O)OC` (stereo not drawn) [I.1-648], the “Effect (TRZAS)” value in experiment [1] (dosage 250 g/ha) is reported as 10-20.

These data come from patent publication US10322995B2, “Substituted cyano cycloalkyl penta-2,4-dienes, cyano cycloalkyl pent-2-en-4-ynes, cyano heterocyclyl penta-2,4-dienes and cyano heterocyclyl pent-2-en-4-ynes as active substances against abiotic plant stress” (BAYER CROPSCIENCE AKTIENGESELLSCHAFT, priority 2014, dated 2019).
